Reference: publication PMC7290235, “Regulation of Exopolysaccharide Production by ProE, a Cyclic-Di-GMP Phosphodiesterase in Pseudomonas aeruginosa PAO1” (Frontiers in Microbiology, 2020)

How the values were obtained:
[1] = biological target: T1, WspR (Pseudomonas aeruginosa, UniProt Q9HXT9); assay: HPLC of c-di-GMP formation; assay type: biochemical; conditions: 500 uM GTP, 5 uM enzyme, Tris-HCl pH 7.8, 250 mM NaCl, 25 mM KCl, 10 mM MgCl2, 37 C, 120 min
T1 construct: wspR in pET28b(+) (BamHI/HindIII), His tag, Ni-NTA purified; tag removal not mentioned

[2] = biological target: T2, ProE (Pseudomonas aeruginosa, UniProt Q9HTQ9); assay: HPLC of pGpG formation, […] nm; assay type: biochemical; conditions: 50 uM c-di-GMP, 0.08 uM enzyme, Tris-HCl pH 8.0, 20 mM KCl, 5 mM MgCl2, 37 C, 20 min
T2 construct: gene PA5295; coding region in pET28b(+) (BamHI/HindIII), His tag, Ni-NTA purified; GGDEF 113-282, EAL 292-538; tag removal not mentioned
T2 sequence (Q9HTQ9 entry or part of it): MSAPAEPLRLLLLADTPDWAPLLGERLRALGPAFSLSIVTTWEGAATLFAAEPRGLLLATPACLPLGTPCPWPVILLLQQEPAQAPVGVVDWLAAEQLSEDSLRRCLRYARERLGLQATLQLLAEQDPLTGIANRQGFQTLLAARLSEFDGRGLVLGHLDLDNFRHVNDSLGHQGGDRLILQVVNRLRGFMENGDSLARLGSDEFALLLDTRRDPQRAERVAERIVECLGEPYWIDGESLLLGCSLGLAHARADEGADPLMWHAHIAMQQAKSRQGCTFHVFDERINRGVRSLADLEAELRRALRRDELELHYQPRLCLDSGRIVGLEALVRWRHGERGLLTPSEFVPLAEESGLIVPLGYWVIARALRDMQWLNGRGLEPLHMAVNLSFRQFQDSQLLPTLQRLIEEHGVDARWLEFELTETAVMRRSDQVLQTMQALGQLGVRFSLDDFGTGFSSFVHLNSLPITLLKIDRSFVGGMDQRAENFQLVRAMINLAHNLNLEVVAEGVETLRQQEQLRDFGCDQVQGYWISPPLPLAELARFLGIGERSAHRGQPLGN

T1 sequence (Q9HXT9 entry or part of it): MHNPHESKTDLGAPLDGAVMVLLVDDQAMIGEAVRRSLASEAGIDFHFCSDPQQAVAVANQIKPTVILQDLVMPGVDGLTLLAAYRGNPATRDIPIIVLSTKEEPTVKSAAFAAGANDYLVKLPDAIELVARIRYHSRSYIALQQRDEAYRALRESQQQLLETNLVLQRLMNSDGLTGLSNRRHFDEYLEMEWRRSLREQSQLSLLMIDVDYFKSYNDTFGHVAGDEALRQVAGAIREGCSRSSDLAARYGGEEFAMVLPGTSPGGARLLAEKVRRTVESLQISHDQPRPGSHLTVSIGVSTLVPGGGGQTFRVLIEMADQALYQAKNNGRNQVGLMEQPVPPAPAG

Row | SMILES | HPLC of c-di-GMP formation [1] | HPLC of pGpG formation, 254 nm [2]
1 | Nc1nc2c(ncn2[C@@H]2O[C@H](COP(=O)(O)OP(=O)(O)OP(=O)(O)O)[C@@H](O)[C@H]2O)c(=O)[nH]1 [GTP] | the control protein WspR could convert most GTP into c-di-GMP | –
2 | Nc1nc2c(ncn2[C@@H]2O[C@@H]3COP(=O)(O)O[C@H]4[C@@H](O)[C@H](n5cnc6c(=O)[nH]c(N)nc65)O[C@@H]4COP(=O)(O)O[C@H]3[C@H]2O)c(=O)[nH]1 [c-di-GMP] | – | HPLC analysis showed that the degradation product pGpG was produced
